Assay results taken from ChEMBL document CHEMBL5465560, “Selectivity Literature for EUbOPEN Chemogenomic Library” (2024).

What was measured:
[1] = molecular target: Interferon-induced, double-stranded RNA-activated protein kinase (Homo sapiens) (UniProt P19525); settings: at 10 µM
[2] = molecular target: Serine/threonine-protein kinase 10 (Homo sapiens) (UniProt O94804); settings: at 10 µM
[3] = molecular target: STE20/SPS1-related proline-alanine-rich protein kinase (Homo sapiens) (UniProt Q9UEW8); settings: at 10 µM
[4] = molecular target: CDK7/Cyclin H/MNAT1 (Homo sapiens) (UniProt P51946+P50613+P51948); assay: Selectivity interaction (Millipore kinase profiler) EUB0000124b CDK7; type: protein-complex assay; settings: at 10 µM
[5] = molecular target: Ribosomal protein S6 kinase alpha-3 (Homo sapiens, UniProt P51812); assay: Selectivity interaction (ActivX KiNativ screen (kinase selectivity in THP-1 cell lysates)) EUB0000639a RPS6KA3; type: subcellular; settings: lysate, at 0.01 µM
Sequence of Ribosomal protein S6 kinase alpha-3 (P51812 whole entry): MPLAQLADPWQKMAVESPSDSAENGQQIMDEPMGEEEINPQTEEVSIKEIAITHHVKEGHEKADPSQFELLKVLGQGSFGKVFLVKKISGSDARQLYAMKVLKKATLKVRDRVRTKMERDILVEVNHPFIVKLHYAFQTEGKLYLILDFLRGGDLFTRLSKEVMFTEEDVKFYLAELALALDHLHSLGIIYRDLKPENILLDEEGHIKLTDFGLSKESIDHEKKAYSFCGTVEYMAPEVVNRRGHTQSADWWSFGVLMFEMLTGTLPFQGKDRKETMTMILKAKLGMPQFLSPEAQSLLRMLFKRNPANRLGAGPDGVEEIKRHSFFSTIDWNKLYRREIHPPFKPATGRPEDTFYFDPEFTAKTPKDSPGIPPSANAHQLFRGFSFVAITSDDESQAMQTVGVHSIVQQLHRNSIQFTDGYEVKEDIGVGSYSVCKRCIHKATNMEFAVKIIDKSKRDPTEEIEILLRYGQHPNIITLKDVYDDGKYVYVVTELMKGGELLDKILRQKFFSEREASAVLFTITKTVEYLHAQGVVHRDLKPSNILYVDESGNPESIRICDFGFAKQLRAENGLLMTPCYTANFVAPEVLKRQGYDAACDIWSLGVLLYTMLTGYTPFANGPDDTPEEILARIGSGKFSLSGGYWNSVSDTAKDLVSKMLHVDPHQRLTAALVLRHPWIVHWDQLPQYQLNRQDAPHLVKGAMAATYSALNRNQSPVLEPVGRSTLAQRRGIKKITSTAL

Ephrin type-A receptor 4 = Ephrin type-A receptor 4 (Homo sapiens, UniProt P54764); assay: Selectivity interaction (Kinase panel (Z-LYTE Assay)) EUB0001632a EPHA4; settings: at 10 µM
[6] = molecular target: Maternal embryonic leucine zipper kinase (Homo sapiens) (UniProt Q14680); assay: Selectivity interaction (KinomeScan (DiscoverX)) EUB0000595a MELK; settings: at 10 µM
Sequence of Maternal embryonic leucine zipper kinase (Homo sapiens) (Q14680 whole entry, looked up): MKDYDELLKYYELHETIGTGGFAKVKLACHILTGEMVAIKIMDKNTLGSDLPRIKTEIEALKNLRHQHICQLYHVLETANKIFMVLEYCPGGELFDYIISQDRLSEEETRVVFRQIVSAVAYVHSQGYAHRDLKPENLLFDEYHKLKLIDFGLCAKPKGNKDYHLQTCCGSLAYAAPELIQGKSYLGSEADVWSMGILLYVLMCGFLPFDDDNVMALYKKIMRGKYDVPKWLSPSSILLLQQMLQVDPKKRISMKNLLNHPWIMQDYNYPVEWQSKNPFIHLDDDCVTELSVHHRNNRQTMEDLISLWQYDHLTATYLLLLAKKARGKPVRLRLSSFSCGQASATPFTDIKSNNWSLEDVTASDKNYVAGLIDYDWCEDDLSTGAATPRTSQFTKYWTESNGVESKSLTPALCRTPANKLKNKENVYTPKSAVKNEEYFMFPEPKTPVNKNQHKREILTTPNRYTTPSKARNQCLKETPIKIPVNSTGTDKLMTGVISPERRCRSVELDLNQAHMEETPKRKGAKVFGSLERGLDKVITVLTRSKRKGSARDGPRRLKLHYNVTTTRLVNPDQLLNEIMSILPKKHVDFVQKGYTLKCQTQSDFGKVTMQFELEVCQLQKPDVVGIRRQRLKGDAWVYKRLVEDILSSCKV

[7] = molecular target: Tyrosine-protein kinase receptor UFO (Homo sapiens) (UniProt P30530); assay: Selectivity interaction (KinomeScan (DiscoverX)) EUB0000229b AXL; settings: at 10 µM
[8] = molecular target: PH-interacting protein (Homo sapiens) (UniProt Q8WWQ0); assay: Selectivity interaction (Human bromodomain panel (DSF assay)) EUB0000233b PHIP
[9] = Selectivity interaction (KinomeScan (DiscoverX)) EUB0000655a CDK2H; settings: at 10 µM
[10] = tested on: Epidermal growth factor receptor (Homo sapiens), P00533 [G719C]; assay: (§1) Selectivity interaction (KinomeScan (DiscoverX)) EUB0001619a EGFR; settings: at 1 µM
[11] = tested on: Epidermal growth factor receptor (Homo sapiens), P00533 [G719S]; assay: as §1; settings: at 1 µM
[12] = tested on: Epidermal growth factor receptor (Homo sapiens), P00533 [L858R,T790M]; assay: as §1; settings: at 1 µM
[13] = tested on: Epidermal growth factor receptor (Homo sapiens), P00533 [L858R]; assay: as §1; settings: at 1 µM
[14] = tested on: Epidermal growth factor receptor (Homo sapiens), P00533 [L861Q]; assay: as §1; settings: at 1 µM
[15] = tested on: Epidermal growth factor receptor (Homo sapiens), P00533 [T790M]; assay: as §1; settings: at 1 µM
Sequence of Epidermal growth factor receptor (Homo sapiens), P00533 [T790M] (P00533 whole entry T790M): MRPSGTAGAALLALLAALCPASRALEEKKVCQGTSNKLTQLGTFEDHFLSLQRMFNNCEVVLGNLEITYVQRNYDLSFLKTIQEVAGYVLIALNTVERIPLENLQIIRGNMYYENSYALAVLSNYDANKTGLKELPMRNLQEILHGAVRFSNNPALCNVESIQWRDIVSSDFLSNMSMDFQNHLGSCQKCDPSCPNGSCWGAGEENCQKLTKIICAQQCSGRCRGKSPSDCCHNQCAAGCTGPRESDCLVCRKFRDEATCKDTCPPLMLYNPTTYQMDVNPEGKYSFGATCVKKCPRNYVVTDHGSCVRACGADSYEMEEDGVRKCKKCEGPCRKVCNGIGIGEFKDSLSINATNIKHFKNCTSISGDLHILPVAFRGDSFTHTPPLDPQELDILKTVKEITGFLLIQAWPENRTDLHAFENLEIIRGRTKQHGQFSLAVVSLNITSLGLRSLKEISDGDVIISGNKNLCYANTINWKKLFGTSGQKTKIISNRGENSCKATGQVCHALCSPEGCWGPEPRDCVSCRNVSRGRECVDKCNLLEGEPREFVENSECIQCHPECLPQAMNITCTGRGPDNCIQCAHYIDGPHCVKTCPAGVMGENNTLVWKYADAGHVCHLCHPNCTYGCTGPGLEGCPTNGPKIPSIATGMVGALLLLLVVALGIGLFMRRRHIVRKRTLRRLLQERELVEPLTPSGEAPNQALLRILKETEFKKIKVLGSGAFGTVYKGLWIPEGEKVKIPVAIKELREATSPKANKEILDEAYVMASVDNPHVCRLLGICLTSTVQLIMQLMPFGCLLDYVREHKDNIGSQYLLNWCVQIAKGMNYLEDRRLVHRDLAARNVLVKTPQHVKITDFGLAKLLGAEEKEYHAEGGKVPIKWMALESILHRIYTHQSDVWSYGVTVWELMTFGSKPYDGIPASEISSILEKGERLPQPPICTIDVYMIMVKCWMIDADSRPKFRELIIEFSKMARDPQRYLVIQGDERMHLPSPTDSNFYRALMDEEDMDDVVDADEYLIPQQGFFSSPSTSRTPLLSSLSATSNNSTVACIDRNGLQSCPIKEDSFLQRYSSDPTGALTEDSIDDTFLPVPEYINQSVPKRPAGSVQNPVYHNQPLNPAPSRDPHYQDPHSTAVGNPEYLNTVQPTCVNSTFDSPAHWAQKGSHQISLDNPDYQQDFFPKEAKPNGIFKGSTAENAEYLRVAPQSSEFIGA

[16] = tested on: Epidermal growth factor receptor (Homo sapiens), P00533 [UNDEFINED MUTATION]; assay: as §1; settings: at 1 µM
Sequence of Epidermal growth factor receptor (Homo sapiens), P00533 [UNDEFINED MUTATION] (P00533 whole entry, looked up, change not shown): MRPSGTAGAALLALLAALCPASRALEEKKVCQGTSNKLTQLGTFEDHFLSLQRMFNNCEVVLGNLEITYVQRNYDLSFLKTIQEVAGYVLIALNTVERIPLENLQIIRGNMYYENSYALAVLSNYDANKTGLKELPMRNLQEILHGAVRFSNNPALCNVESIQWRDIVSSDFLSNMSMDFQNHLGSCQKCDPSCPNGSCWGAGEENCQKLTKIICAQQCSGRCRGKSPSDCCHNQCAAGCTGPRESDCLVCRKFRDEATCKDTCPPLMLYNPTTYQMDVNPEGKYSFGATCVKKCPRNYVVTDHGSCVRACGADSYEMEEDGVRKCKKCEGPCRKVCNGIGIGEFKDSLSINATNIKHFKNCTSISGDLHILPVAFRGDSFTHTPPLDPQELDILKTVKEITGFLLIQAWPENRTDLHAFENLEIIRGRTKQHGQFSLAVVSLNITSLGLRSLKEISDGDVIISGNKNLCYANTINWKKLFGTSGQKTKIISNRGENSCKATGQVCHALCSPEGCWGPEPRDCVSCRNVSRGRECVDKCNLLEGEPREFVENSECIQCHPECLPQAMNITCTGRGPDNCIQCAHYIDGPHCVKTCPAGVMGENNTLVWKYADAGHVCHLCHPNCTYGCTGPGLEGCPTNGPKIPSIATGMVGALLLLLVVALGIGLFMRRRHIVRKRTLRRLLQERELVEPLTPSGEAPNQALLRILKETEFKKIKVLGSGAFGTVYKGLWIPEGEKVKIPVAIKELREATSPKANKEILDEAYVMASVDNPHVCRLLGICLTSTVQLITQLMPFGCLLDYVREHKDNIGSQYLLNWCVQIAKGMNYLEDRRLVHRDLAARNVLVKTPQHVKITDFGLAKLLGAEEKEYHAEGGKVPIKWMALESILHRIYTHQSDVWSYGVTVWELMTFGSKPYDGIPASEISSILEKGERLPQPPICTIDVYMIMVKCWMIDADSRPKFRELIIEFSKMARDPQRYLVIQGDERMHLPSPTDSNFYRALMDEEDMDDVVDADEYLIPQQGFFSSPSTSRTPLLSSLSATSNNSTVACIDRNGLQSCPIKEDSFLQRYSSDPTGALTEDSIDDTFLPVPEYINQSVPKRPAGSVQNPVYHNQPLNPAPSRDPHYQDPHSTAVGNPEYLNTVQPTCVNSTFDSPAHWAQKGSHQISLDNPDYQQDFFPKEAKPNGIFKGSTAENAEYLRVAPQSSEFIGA

[17] = molecular target: Epidermal growth factor receptor (Homo sapiens, UniProt P00533); assay: as §1; settings: at 1 µM
Sequence of Epidermal growth factor receptor (P00533 whole entry): as the sequence (P00533 whole entry, looked up, change not shown) above

[18] = molecular target: T1, Serine/threonine-protein kinase TAO3 (Homo sapiens) (UniProt Q9H2K8); assay: Selectivity interaction (ActivX KiNativ screen (ex vivo kinase selectivity in human PBMCs)) EUB0001619a TAOK3; type: cell-based; settings: PBMC, at 1 µM
T1 sequence (whole entry): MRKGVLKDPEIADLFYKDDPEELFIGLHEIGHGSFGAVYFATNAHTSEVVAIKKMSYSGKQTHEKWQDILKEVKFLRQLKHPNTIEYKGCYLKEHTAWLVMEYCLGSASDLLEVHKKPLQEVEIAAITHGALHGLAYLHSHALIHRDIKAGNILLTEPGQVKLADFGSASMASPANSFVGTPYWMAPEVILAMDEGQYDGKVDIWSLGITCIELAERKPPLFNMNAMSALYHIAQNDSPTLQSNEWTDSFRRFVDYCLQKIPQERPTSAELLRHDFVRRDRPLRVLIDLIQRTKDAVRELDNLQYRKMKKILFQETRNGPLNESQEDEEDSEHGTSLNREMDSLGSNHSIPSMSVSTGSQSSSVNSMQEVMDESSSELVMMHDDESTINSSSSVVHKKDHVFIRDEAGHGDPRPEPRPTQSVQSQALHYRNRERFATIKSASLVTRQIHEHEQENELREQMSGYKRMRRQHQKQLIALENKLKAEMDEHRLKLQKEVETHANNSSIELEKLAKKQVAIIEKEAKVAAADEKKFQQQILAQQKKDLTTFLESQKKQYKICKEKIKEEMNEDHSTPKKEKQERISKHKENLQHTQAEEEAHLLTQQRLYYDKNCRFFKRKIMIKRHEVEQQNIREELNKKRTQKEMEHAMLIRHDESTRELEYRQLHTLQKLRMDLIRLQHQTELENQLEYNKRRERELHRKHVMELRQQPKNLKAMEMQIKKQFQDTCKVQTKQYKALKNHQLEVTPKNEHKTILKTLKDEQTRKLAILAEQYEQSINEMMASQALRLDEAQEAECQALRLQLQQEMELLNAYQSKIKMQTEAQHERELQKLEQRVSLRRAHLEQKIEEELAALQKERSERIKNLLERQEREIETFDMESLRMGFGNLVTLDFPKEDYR

[19] = molecular target: Serine/threonine-protein kinase MRCK beta (Homo sapiens) (UniProt Q9Y5S2); assay: Selectivity interaction (KinomeScan (DiscoverX)) EUB0000618a CDC42BPB; settings: at 10 µM
[20] = molecular target: T2, Serine/threonine-protein kinase Nek11 (Homo sapiens) (UniProt Q8NG66); assay: Selectivity interaction (KinomeScan (DiscoverX)) EUB0000618a NEK11; settings: at 10 µM
T2 sequence (whole entry): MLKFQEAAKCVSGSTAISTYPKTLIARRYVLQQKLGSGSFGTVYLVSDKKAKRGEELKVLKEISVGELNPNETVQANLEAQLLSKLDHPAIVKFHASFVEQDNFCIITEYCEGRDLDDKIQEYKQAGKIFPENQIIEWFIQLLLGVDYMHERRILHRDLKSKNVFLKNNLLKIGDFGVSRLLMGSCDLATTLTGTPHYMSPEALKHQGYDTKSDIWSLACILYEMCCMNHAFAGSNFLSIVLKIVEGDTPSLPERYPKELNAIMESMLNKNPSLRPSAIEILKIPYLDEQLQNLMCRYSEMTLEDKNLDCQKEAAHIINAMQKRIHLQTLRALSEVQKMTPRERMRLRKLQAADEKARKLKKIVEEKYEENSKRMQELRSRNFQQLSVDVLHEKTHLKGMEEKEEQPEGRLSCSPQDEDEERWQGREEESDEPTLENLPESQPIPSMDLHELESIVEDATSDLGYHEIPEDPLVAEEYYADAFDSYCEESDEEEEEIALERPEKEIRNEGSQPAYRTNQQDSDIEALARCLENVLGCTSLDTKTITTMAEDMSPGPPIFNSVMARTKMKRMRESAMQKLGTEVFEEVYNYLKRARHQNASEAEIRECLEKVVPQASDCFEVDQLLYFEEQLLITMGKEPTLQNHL

[21] = molecular target: Calcium/calmodulin-dependent protein kinase type II subunit gamma (Homo sapiens) (UniProt Q13555); assay: Selectivity interaction (Kinase panel (KiNativ target engagement assay in Jurkat cells)) EUB0001635a CAMK2G; type: cell-based; settings: Selectivity number of off-targets 0.0, Selectivity number of targets 233.0, Source Knowledge https://www.sciencedirect.com/science/article/pii/S2451945619300674?via%3Dihub, at 1 µM

In the case of Cc1cc([C@@H](C)Nc2ccccc2C(=O)O)c2nc(N3CCOCC3)cc(=O)n2c1 [AZD-6482], the % of control [1] is reported as 99%, the % of control [2] is reported as 100% and the % of control [3] is reported as 100%.

CC(=O)Nc1cccc(-n2c(=O)n(C3CC3)c(=O)c3c(Nc4ccc(I)cc4F)n(C)c(=O)c(C)c32)c1 gave a % of control [4] of 106%.

CC[C@@H]1[C@H](F)C(=O)N[C@@H]1COc1nccc2cc(C(N)=O)c(OC)cc12 [ZIMLOVISERTIB] gave a % of inhibition [5] of -9.7%.

Cn1cc(-n2cnc3c(NCc4nc5cc(Cl)c(Cl)cc5[nH]4)nc(N4CCOCC4)nc32)cn1 gave a % of control (Ephrin type-A receptor 4) of -5.33%.

Work on COCC(=O)NC/C=C/c1ccc2ncnc(Nc3ccc(Oc4ccc(C)nc4)c(C)c3)c2c1 [CP-724714] yielded a % of control [6] of 92%.

Work on COc1cc(N(C)c2ccnc3ccc(C(F)(F)F)cc23)cc(OC)c1OC yielded a % binding [7] of 86%.

CN(C)CCCOc1ccc(-c2cc(NCCCn3cccn3)nc(S(C)(=O)=O)n2)cc1 gave a dTM [8] of under 2 K.

CN(C)CCOc1ccc(-c2nc(-c3ccncc3)c(-c3ccc4c(c3)CC/C4=N\O)[nH]2)cc1 showed a % of control [9] of 86%.

In the case of N#Cc1cccc(-c2c[nH]c3ncnc(N4CCOCC4)c23)c1, the % of control [10] is reported as 84%, the % of control [11] is reported as 100% and the % of control [12] is reported as 100%. The % of control [13] was 78%, the % of control [14] was 86% and the % of control [15] was 81%. The % of control [16] was 77%, the % of control [17] was 100% and the % of inhibition [18] was 6%.

In the case of O[C@H]1CC[C@H](Nc2ncc3nc(Nc4c(F)cc(F)cc4F)n([C@H]4CCOC4)c3n2)CC1, the % of control [19] is reported as 100% and the % of control [20] is reported as 90%.

For C=CC(=O)Nc1ccc(C(=O)Nc2[nH]nc3c2CN(C(=O)N[C@H](CN(C)C)c2ccccc2)C3(C)C)cc1, the % of engagement [21] was 35.8%.
